Measured values from patent publication US20090209494A1, “21-DEOXYMACBECIN ANALOGUES USEFUL AS ANTITUMOR AGENTS” (priority 2005, published 2009).
Values after ≈ are worked out from the molar mass of the structure shown.

Experiments:
Solubility assay = assay type: physicochemical; conditions: aqueous buffer, kinetic from dmso stock; 2% DMSO in PBS pH 7.3; shaken up to six hours; maximum measurable 0.5 mM
Method: Solutions (25 mM) of the test compounds were prepared by dissolving 3-5 mg aliquots in the appropriate amount of DMSO.
Aliquots (0.01 mL) were added to 0.490 mL of pH 7.3 PBS in glass vials. For each time point, 3 PBS vials were prepared in amber glass vials. For the six hour time point triplicate aliquots in DMSO were also prepared.
The resulting 0.5 mM solutions were shaken for up to six hours, with vials removed for analysis at 1, 3 and 6 hours. Samples were analysed by HPLC (0.025 mL injections).
Solubility in 2% DMSO in PBS at each time point was determined by comparing total peak areas for each chromatogram with mean total peak area for chromatograms produced from the corresponding 6 hour DMSO solutions. (Mean total peak area in DMSO solutions was assumed to be equivalent to a 0.5 mM solution).

DU145 [1] = test: in vitro anticancer activity in combination with compound 14, modified propidium iodide assay; assay type: cell-based, human
Method: Standard agents were applied at 10 concentrations in sextuplicates in half-log increments. […] Growth inhibition is expressed as treated/control×100 (% T/C), and IC70 values for each combination were determined by plotting compound concentration versus cell viability.
In vitro evaluation of 14 for anticancer activity when combined with standard cytotoxic agents against the tumour cell line DU145 in a monolayer proliferation assay was carried out as described in the general methods using a modified propidium iodide assay.

LNCAP = test: monolayer proliferation assay (modified propidium iodide assay), LNCAP; assay type: cell-based, human; conditions: 4 days exposure, median of duplicate experiments
Method: (§1) In vitro evaluation of compounds for anticancer activity in a panel of 38 human tumour cell lines in a monolayer proliferation assay was carried out at the Oncotest Testing Facility, Institute for Experimental Oncology, Oncotest GmbH, Freiburg.
(§2) The Oncotest cell lines are established from human tumor xenografts as described by Roth et al., (1999). The origin of the donor xenografts was described by Fiebig et al., (1999). Other cell lines are either obtained from the NCl (H460, SF-268, OVCAR-3, DU145, MDA-MB-231, MDA-MB-468) or purchased from DSMZ, Braunschweig, Germany (LNCAP).
(§3) All cell lines, unless otherwise specified, were grown at 37° C. in a humidified atmosphere (95% air, 5% CO2) in a ‘ready-mix’ medium containing RPMI 1640 medium, 10% fetal calf serum, and 0.1 mg/mL gentamicin (PAA, Cölbe, Germany).
(§4) A modified propidium iodide assay was used to assess the effects of the test compound(s) on the growth of human tumour cell lines (Dengler et al., (1995)).
(§5) Briefly, cells were harvested from exponential phase cultures by trypsinization, counted and plated in 96 well flat-bottomed microtitre plates at a cell density dependent on the cell line (5-10.000 viable cells/well). After 24 h recovery to allow the cells to resume exponential growth, 0.010 mL of culture medium (6 control wells per plate) or culture medium containing a 21-deoxymacbecin analogue was added to the wells. Each concentration was plated in triplicate. […] Following 4 days of continuous exposure, cell culture medium with or without test compound was replaced by 0.2 mL of an aqueous propidium iodide (PI) solution (7 mg/L). To measure the proportion of living cells, cells were permeabilized by freezing the plates. After thawing the plates, fluorescence was measured using the Cytofluor 4000 microplate reader (excitation 530 nm, emission 620 nm), giving a direct relationship to the total number of viable cells.
(§6) Growth inhibition was expressed as treated/control×100 (% T/C). For active compounds, IC70 values were estimated by plotting compound concentration versus cell viability.
(§7) In vitro evaluation of the test compounds for anticancer activity in a panel of human tumour cell lines in a monolayer proliferation assay was carried out as described in the general methods using a modified propidium iodide assay.

Yeast Hsp90 = Yeast Hsp90 (Saccharomyces cerevisiae, UniProt P02829); test: Hsp90 binding, isothermal titration calorimetry; conditions: yeast Hsp90; ITC at 30° C.; 2% DMSO; read-out: Kd values for Hsp90 binding
Chain of Yeast Hsp90 (P02829 whole entry): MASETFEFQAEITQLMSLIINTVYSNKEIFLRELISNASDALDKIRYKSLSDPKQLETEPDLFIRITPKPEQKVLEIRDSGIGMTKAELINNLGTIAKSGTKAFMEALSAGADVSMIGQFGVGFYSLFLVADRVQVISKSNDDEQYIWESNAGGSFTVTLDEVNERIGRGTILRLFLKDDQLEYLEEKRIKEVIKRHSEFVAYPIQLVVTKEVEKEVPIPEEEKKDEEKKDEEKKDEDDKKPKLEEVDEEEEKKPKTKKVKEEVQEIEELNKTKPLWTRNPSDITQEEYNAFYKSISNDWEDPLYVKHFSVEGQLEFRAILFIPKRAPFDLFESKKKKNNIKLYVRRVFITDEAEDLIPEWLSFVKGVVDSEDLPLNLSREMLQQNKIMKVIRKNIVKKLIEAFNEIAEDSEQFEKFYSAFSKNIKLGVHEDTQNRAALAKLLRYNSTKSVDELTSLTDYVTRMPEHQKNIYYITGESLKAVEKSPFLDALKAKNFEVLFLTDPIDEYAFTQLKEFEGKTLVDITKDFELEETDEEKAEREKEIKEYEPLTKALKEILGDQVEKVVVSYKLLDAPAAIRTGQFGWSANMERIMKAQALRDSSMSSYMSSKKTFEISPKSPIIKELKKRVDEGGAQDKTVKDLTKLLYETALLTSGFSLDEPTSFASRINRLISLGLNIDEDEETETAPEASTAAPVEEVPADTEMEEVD
Method: Yeast Hsp90 was dialysed against 20 mM Tris pH 7.5 containing 1 mM EDTA and 5 mM NaCl and then diluted to 0.008 mM in the same buffer, but containing 2% DMSO. The test compounds were dissolved in 100% DMSO at a concentration of 50 mM and subsequently diluted to 0.1 mM in the same buffer as for Hsp90 with 2% DMSO. Heats of interaction were measured at 30° C. on a MSC system (Microcal), with a cell volume of 1.458 mL. 10 aliquots of 0.027 mL of 0.100 mM of each test compound were injected into 0.008 mM yeast Hsp90. Heats of dilution were determined in a separate experiment by injecting the test compound into buffer containing 2% DMSO, and the corrected data fitted using a nonlinear least square curve-fitting algorithm (Microcal Origin) with three floating variables: stoichiometry, binding constant and change in enthalpy of interaction.

OVCAR3 = test: monolayer proliferation assay (modified propidium iodide assay), OVCAR3; assay type: cell-based, human; conditions: 4 days exposure, median of duplicate experiments
Method: as §1, §2, §3, §4, §5, §6, §7

1138L = test: monolayer proliferation assay (modified propidium iodide assay), 1138L; assay type: cell-based, human; conditions: 4 days exposure, median of duplicate experiments
Method: as §1, §2, §3, §4, §5, §6, §7

394NL = test: monolayer proliferation assay (modified propidium iodide assay), 394NL; assay type: cell-based, human; conditions: 4 days exposure, median of duplicate experiments
Method: as §1, §2, §3, §4, §5, §6, §7

H460 = test: monolayer proliferation assay (modified propidium iodide assay), H460; assay type: cell-based, human; conditions: 4 days exposure, median of duplicate experiments
Method: as §1, §2, §3, §4, §5, §6, §7

SF268 = test: monolayer proliferation assay (modified propidium iodide assay), SF268; assay type: cell-based, human; conditions: 4 days exposure, median of duplicate experiments
Method: as §1, §2, §3, §4, §5, §6, §7

MCF7 = test: monolayer proliferation assay (modified propidium iodide assay), MCF7; assay type: cell-based, human; conditions: 4 days exposure, median of duplicate experiments
Method: as §1, §2, §3, §4, §5, §6, §7

DU145 [2] = test: monolayer proliferation assay (modified propidium iodide assay), DU145; assay type: cell-based, human; conditions: 4 days exposure, median of duplicate experiments
Method: as §1, §2, §3, §4, §5, §6, §7

251L = test: monolayer proliferation assay (modified propidium iodide assay), 251L; assay type: cell-based, human; conditions: 4 days exposure, median of duplicate experiments
Method: as §1, §2, §3, §4, §5, §6, §7

Hsp90 = Hsp90 (Homo sapiens, UniProt P07900); conditions: cited from earlier work
[3] = concentration of 14: 0 nM (standard agent alone)

Structure (SMILES): CO[C@H]1[C@@H](OC)C[C@H](C)[C@@H](OC)c2cc(O)cc(c2O)NC(=O)/C(C)=C/C=C\[C@H](C)[C@@H](OC(N)=O)/C(C)=C/[C@@H]1C [18,21-dihydromacbecin]
- solubility (Solubility assay): 136 µM (≈ 76.3 µg/mL)

Structure (SMILES): O=NN(CCCl)C(=O)NC1CCCCC1 [CCNU, Cyclohexylchloroethylnitrosurea]
- IC70 of standard agent (DU145 [1]; combined with 14 at 80 nM): 11.30 µg/mL
- IC70 of standard agent (DU145 [1]; combined with 14 at 120 nM): 9.34 µg/mL
- IC70 of standard agent (DU145 [1]; combined with 14 at 160 nM): 1.63 µg/mL
- IC70 of standard agent (DU145 [1]; [3]): 19.74 µg/mL

Structure (SMILES): CO[C@H]1C[C@H](C)Cc2cc(O)cc(c2)NC(=O)/C(C)=C/CC[C@H](C)[C@@H](OC(N)=O)/C(C)=C/[C@H](C)[C@H]1O [Compound 14, 7-O-carbamoylpre-macbecin]
- Test/Control (%) at drug concentration (LNCAP; 1 μg/mL): 13%
- Test/Control (%) at drug concentration (LNCAP; 10 μg/mL): 12%
- solubility (Solubility assay): ≥ 500 µM
- Kd (Yeast Hsp90): 3.2 nM
- Test/Control (%) at drug concentration (OVCAR3; 1 μg/mL): 27%
- Test/Control (%) at drug concentration (OVCAR3; 10 μg/mL): 28%
- Test/Control (%) at drug concentration (1138L; 1 μg/mL): 13%
- Test/Control (%) at drug concentration (1138L; 10 μg/mL): 14%
- Test/Control (%) at drug concentration (394NL; 1 μg/mL): 14%
- Test/Control (%) at drug concentration (394NL; 10 μg/mL): 13%
- Test/Control (%) at drug concentration (H460; 1 μg/mL): 3%
- Test/Control (%) at drug concentration (H460; 10 μg/mL): 4%
- Test/Control (%) at drug concentration (SF268; 1 μg/mL): 18%
- Test/Control (%) at drug concentration (SF268; 10 μg/mL): 16%
- Test/Control (%) at drug concentration (MCF7; 1 μg/mL): 11%
- Test/Control (%) at drug concentration (MCF7; 10 μg/mL): 9%
- Test/Control (%) at drug concentration (DU145 [2]; 1 μg/mL): 8%
- Test/Control (%) at drug concentration (DU145 [2]; 10 μg/mL): 6%
- Test/Control (%) at drug concentration (251L; 1 μg/mL): 18%
- Test/Control (%) at drug concentration (251L; 10 μg/mL): 16%

Structure (SMILES): CO[C@H]1C[C@H](C)[C@@H](O)c2cc(O)cc(c2)NC(=O)/C(C)=C/CC[C@H](C)[C@@H](OC(N)=O)/C(C)=C/[C@H](C)[C@H]1O [Compound 15, 7-O-carbamoyl-15-hydroxypre-macbecin]
- Test/Control (%) at drug concentration (LNCAP; 1 μg/mL): 58%
- Test/Control (%) at drug concentration (LNCAP; 10 μg/mL): 16%
- solubility (Solubility assay): ≥ 500 µM
- Kd (Yeast Hsp90): 6 nM
- Test/Control (%) at drug concentration (OVCAR3; 1 μg/mL): 100%
- Test/Control (%) at drug concentration (OVCAR3; 10 μg/mL): 41%
- Test/Control (%) at drug concentration (1138L; 1 μg/mL): 101%
- Test/Control (%) at drug concentration (1138L; 10 μg/mL): 25%
- Test/Control (%) at drug concentration (394NL; 1 μg/mL): 75%
- Test/Control (%) at drug concentration (394NL; 10 μg/mL): 18%
- Test/Control (%) at drug concentration (H460; 1 μg/mL): 87%
- Test/Control (%) at drug concentration (H460; 10 μg/mL): 23%
- Test/Control (%) at drug concentration (SF268; 1 μg/mL): 95%
- Test/Control (%) at drug concentration (SF268; 10 μg/mL): 27%
- Test/Control (%) at drug concentration (MCF7; 1 μg/mL): 99%
- Test/Control (%) at drug concentration (MCF7; 10 μg/mL): 19%
- Test/Control (%) at drug concentration (DU145 [2]; 1 μg/mL): 99%
- Test/Control (%) at drug concentration (DU145 [2]; 10 μg/mL): 18%
- Test/Control (%) at drug concentration (251L; 1 μg/mL): 86%
- Test/Control (%) at drug concentration (251L; 10 μg/mL): 29%

Structure (SMILES): COC1=C2C[C@@H](C)C[C@H](OC)[C@H](O)[C@@H](C)/C=C(\C)[C@H](OC(N)=O)[C@@H](OC)/C=C\C=C(/C)C(=O)NC(=CC1=O)C2=O [Geldanamycin, geldanamycin]
- solubility (Solubility assay): 1.7 µM (≈ 0.953 µg/mL)

Structure (SMILES): CO[C@H]1C[C@H](C)Cc2cc(O)cc(c2)NC(=O)/C=C/CC[C@H](OC)[C@@H](OC(N)=O)/C(C)=C/[C@H](C)[C@H]1O [KOSN1559]
- binding affinity to Hsp90, greater than 17-AAG (Hsp90; relative to 17-AAG): 8 fold
- binding affinity to Hsp90, greater than geldanamycin (Hsp90; relative to geldanamycin): 4 fold

Structure (SMILES): O=P1(NCCCl)OCCCN1CCCl (stereo not shown) [ifosfamid]
- IC70 of standard agent (DU145 [1]; combined with 14 at 80 nM): 80.57 µg/mL
- IC70 of standard agent (DU145 [1]; combined with 14 at 120 nM): 52.09 µg/mL
- IC70 of standard agent (DU145 [1]; combined with 14 at 160 nM): 17.32 µg/mL
- IC70 of standard agent (DU145 [1]; [3]): 90.14 µg/mL

Structure (SMILES): CO[C@@]12[C@H](COC(N)=O)C3=C(C(=O)C(C)=C(N)C3=O)N1C[C@@H]1N[C@@H]12 [mitomycin, mitomycin C]
- IC70 of standard agent (DU145 [1]; combined with 14 at 30 nM): 0.112 µg/mL
- IC70 of standard agent (DU145 [1]; combined with 14 at 50 nM): 0.087 µg/mL
- IC70 of standard agent (DU145 [1]; combined with 14 at 80 nM): 0.056 µg/mL
- IC70 of standard agent (DU145 [1]; [3]): 0.165 µg/mL

Structure (SMILES): O=C1c2c(O)ccc(O)c2C(=O)c2c(NCCNCCO)ccc(NCCNCCO)c21 [mitoxantrone]
- IC70 of standard agent (DU145 [1]; combined with 14 at 80 nM): 1.00 µg/mL
- IC70 of standard agent (DU145 [1]; combined with 14 at 120 nM): 1.25 µg/mL
- IC70 of standard agent (DU145 [1]; combined with 14 at 160 nM): 0.11 µg/mL
- IC70 of standard agent (DU145 [1]; [3]): 2.08 µg/mL

Structure (SMILES): CC[C@]1(O)C[C@@H]2CN(CCc3c([nH]c4ccccc34)[C@@](C(=O)OC)(c3cc4c(cc3OC)N(C)[C@H]3[C@@](O)(C(N)=O)[C@H](O)[C@]5(CC)C=CCN6CC[C@]43[C@@H]65)C2)C1 [vindesine]
- IC70 of standard agent (DU145 [1]; combined with 14 at 80 nM): 0.0008 µg/mL
- IC70 of standard agent (DU145 [1]; combined with 14 at 120 nM): 0.0006 µg/mL
- IC70 of standard agent (DU145 [1]; combined with 14 at 160 nM): 0.0001 µg/mL
- IC70 of standard agent (DU145 [1]; [3]): 0.0009 µg/mL
